In patent US9163021B2, “Pyrrolo[3,2-c]pyridine tropomyosin-related kinase inhibitors” (Pfizer Limited, priority 2012, dated 2015):

Biological target: TRKA (Homo sapiens (Human), UniProt P04629)
Experiment: Isolated TRK enzyme assay (HTRF KinEASE-TK), PV3144 TrkA enzyme assay
Assay type: biochemical
Details: arithmetic mean where more than one reading
Outline: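 His-tagged TrkA cytoplasmic domain preactivated with ATP 20 min, then with compound 20 min at room temperature before 1 µM final biotin-TK substrate; HTRF 665/620 nm read.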

Sequence of TRKA (P04629 441-796): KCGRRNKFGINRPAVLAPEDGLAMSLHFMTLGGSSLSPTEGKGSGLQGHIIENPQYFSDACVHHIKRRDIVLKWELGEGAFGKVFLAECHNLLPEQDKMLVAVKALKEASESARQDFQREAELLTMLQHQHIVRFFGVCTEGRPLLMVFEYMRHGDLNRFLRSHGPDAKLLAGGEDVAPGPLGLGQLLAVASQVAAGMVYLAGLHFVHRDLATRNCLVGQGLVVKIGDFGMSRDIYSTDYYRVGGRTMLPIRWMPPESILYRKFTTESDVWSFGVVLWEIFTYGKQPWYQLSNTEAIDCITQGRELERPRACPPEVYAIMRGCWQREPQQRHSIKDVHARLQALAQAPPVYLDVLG

IC50 | Compound
342 nM | O=C(Cn1cc(C(F)(F)F)nn1)Nc1cc(C(=O)c2cn(CCO)c3ccncc23)ccn1 [Example 156, N-(4-{[1-(2-hydroxyethyl)-1H-pyrrolo[3,2-c]pyridin-3-yl]carbonyl}pyridin-2-yl)-2-[4-(trifluoromethyl)-1H-1,2,3-triazol-1-yl]acetamide]
141 nM | N-(2-{[1-(1-hydroxypropan-2-yl)-1H-pyrrolo[3,2-c]pyridin-3-yl]carbonyl}pyridin-4-yl)-2-[4-(trifluoromethyl)phenyl]acetamide [Example 84]
536 nM | CC(C)n1cc(C(=O)c2ccnc(NC(=O)Cc3cscn3)c2)c2cnccc21 [Example 181, N-(4-{[1-(propan-2-yl)-1H-pyrrolo[3,2-c]pyridin-3-yl]carbonyl}pyridin-2-yl)-2(1,3-thiazol-4-yl)acetamide]
233 nM | CC(CO)n1cc(C(=O)c2cncc(NC(=O)Cc3ccc(F)cn3)c2)c2cnccc21 (single isomer, unassigned) [Example 74, 2-(5-fluoropyridin-2-yl)-N-(5-{[1-(1-hydroxypropan-2-yl)-1H-pyrrolo[3,2-c]pyridin-3-yl]carbonyl}pyridin-3-yl)acetamide]
93.3 nM | CC(CO)n1cc(C(=O)c2cncc(NC(=O)Cc3ccc(Cl)cn3)c2)c2cncc(F)c21 (single isomer, unassigned) [Example 211, 2-(5-chloropyridin-2-yl)-N-(5-{[7-fluoro-1-(1-hydroxypropan-2-yl)-1H-pyrrolo[3,2-c]pyridin-3-yl]carbonyl}pyridin-3-yl)acetamide]
6520 nM | Cc1nn(C)cc1CC(=O)Nc1ccnc(C(=O)c2cn(C(C)C)c3ccncc23)c1 [Example 58, 2-(1,3-dimethyl-1H-pyrazol-4-yl)-N-(2-{[1-(propan-2-yl)-1H-pyrrolo[3,2-c]pyridin-3-yl]carbonyl}pyridin-4-yl)acetamide]
505 nM | Cc1cn(CC(=O)Nc2cncc(C(=O)c3cn(C(C)C)c4ccncc34)c2)nn1 [Example 132, 2-(4-methyl-1H-1,2,3-triazol-1-yl)-N-(5-{[1-(propan-2-yl)-1H-pyrrolo[3,2-c]pyridin-3-yl]carbonyl}pyridin-3-yl)acetamide]
3180 nM | Cc1n[nH]c(CC(=O)Nc2cc(C(=O)c3cn(C(C)C)c4ccncc34)ccn2)n1 [Example 184, 2-(3-methyl-1H-1,2,4-triazol-5-yl)-N-(4-{[1-(propan-2-yl)-1H-pyrrolo[3,2-c]pyridin-3-yl]carbonyl}pyridin-2-yl)acetamide]
88.3 nM | CC(CO)n1cc(C(=O)c2cncc(NC(=O)Cc3ccc(Cl)cn3)c2)c2cnccc21 (single isomer, unassigned) [Example 73, 2-(5-chloropyridin-2-yl)-N-(5-{[1-(1-hydroxypropan-2-yl)-1H-pyrrolo[3,2-c]pyridin-3-yl]carbonyl}pyridin-3-yl)acetamide]
137 nM | CC(C)n1cc(C(=O)c2cc(NC(=O)Cn3cc(C4CC4)nn3)ccn2)c2cnccc21 [Example 52, 2-(4-cyclopropyl-1H-1,2,3-triazol-1-yl)-N-(2-{[1-(propan-2-yl)-1H-pyrrolo[3,2-c]pyridin-3-yl]carbonyl}pyridin-4-yl)acetamide]

Compound | IC50
CC(CO)n1cc(C(=O)c2cncc(NC(=O)Cn3cc(C(F)(F)F)nn3)c2)c2cncc(F)c21 (single isomer, unassigned) [Example 220, N-(5-{[7-fluoro-1-(1-hydroxypropan-2-yl)-1H-pyrrolo[3,2-c]pyridin-3-yl]carbonyl}pyridin-3-yl)-2-[4-(trifluoromethyl)-1H-1,2,3-triazol-1-yl]acetamide] | 160 nM
